Data as given in patent publication US20040038855A1 (priority 1999, published 2004).
Like-named read-outs stand apart in the source and are kept apart here.

Key:
[1] = biological target: T1, human Dopamine D2 receptor (Homo sapiens, UniProt P14416); test: Binding affinity at the human dopamine D2 receptor; details: Table 3c; read-out: hD2 Ki
T1 construct: purchased BioSignal, Inc. (Montreal, Canada)
Source text: (§1) Other receptors: Cell membranes expressing human dopamine D1, D2, D4 and rat D3 receptors were purchased through BioSignal, Inc. (Montreal, Canada). Binding assays using the histamine H1 receptor; dopamine receptors; and α1A, α1B, and α2 adrenergic receptors may be carried out according to the procedures described in U.S. Pat. No. 5,780,485, the disclosure of which is hereby incorporated by reference in its entirety into this application. Binding assays using the dopamine D5 receptor may be carried out according to the procedures described in U.S. Pat. No. 5,882,855, the disclosure of which is hereby incorporated by reference in its entirety into this application. Binding assays for the human α1D adrenergic receptor may be carried out according to the procedures described in U.S. Pat. No. 6,156,518, the disclosure of which is hereby incorporated by reference in its entirety into this application.

rat MCH1 receptor = biological target: T2, rat MCH1 receptor (Rattus norvegicus, UniProt P97639); test: Binding affinity (Ki) at the rat MCH1 receptor
T2 construct: expressed in transfected cells
Experimental: For binding assays, pellets of transfected cells are suspended in ice-cold buffer (20 mM Tris.HCl, 5 mM EDTA, pH 7.4) and homogenized by sonication for 7 sec. The cell lysates are centrifuged at 200×g for 5 min at 4° C. The supernatants are then centrifuged at 40,000×g for 20 min at 4° C. The resulting pellets are washed once in the homogenization buffer and suspended in binding buffer (see methods for radioligand binding). Protein concentrations are determined by the method of Bradford (1976) using bovine serum albumin as the standard. Binding assays are usually performed immediately, however it is possible to prepare membranes in batch and store frozen in liquid nitrogen for future use.
Binding is performed at 25° C. for 1 hr. Incubations are terminated by rapid vacuum filtration over GF/C glass fiber filters, presoaked in 5% PEI using 50 mM Tris pH 7.4 containing 0.01% triton X-100 as wash buffer.
A methanolic solution of methyl (4S)-3-({[3-(4-[3-(acetylamino)phenyl]-3,6-dihydro-1(2H)pyridinyl)propyl]amino}carbonyl)-4-(3,4-difluorophenyl)-6-(methoxymethyl)-2-oxo-1,2,3,4-tetrahydro-5-pyrimidinecarboxylate was exposed to tritium gas at 1 atmosphere pressure in the presence of 5% palladium on carbon with stirring overnight to give the tritiated methyl (4S)-3-{[(3-{4-[3-(acetylamino)phenyl]-1-piperidinyl}propyl)amino]carbonyl}-4-(3,4-difluorophenyl)-6-(methoxymethyl)-2-oxo-1,2,3,4-tetrahydro-5-pyrimidinecarboxylate ((+)-isomer) After purification by reverse phase HPLC (Hypersil ODS, 4.6×100 mm, methanol:H2O:Et3N 10:90:1 to 100:0:1 in 15 min at 1.0 mL/min, with radiochemical and UV detection), this product was used as a radioligand in the MCH1 binding assays. The same procedure was carried out with H2 gas in place of ^3H2 to afford the non-radioactive version of Compound 10.

[2] = biological target: T3, human Alpha-1a Adrenergic receptor (Homo sapiens, UniProt P35348); test: Binding affinity at the human alpha-1A adrenergic receptor; details: Table 3c; read-out: hAlpha-1a Ki
T3 construct: expressed in transfected cells
T3 sequence (P35348 1-466): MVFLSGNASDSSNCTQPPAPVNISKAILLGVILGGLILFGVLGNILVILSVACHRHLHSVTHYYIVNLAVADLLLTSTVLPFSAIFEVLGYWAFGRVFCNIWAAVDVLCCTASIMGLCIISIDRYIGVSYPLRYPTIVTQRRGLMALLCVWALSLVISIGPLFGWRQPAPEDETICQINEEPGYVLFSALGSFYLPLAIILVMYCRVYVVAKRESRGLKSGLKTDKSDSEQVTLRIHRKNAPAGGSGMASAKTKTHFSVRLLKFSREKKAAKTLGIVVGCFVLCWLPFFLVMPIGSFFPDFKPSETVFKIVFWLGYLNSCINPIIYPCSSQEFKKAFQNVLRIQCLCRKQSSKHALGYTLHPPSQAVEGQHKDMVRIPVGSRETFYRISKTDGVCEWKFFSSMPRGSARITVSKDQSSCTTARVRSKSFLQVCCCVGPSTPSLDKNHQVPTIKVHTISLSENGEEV
Source text: as §1

[3] = biological target: T4, human Histamine H1 receptor (Homo sapiens, UniProt P35367); test: Binding affinity at the human histamine H1 receptor
T4 construct: expressed in transfected cells
Source text: as §1

[4] = Examples 38-141, read-out: Ki (nM) rMCH1

T2 sequence (P97639 whole entry): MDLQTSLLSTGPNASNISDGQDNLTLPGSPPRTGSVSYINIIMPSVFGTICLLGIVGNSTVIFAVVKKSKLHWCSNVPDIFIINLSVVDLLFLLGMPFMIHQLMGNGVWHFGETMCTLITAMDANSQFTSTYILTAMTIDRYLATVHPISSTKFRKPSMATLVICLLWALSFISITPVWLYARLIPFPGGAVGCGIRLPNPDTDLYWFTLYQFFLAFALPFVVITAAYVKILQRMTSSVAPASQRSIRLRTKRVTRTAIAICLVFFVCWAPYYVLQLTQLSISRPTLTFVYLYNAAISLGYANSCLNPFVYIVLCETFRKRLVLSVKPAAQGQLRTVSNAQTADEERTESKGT
T1 sequence (P14416 whole entry): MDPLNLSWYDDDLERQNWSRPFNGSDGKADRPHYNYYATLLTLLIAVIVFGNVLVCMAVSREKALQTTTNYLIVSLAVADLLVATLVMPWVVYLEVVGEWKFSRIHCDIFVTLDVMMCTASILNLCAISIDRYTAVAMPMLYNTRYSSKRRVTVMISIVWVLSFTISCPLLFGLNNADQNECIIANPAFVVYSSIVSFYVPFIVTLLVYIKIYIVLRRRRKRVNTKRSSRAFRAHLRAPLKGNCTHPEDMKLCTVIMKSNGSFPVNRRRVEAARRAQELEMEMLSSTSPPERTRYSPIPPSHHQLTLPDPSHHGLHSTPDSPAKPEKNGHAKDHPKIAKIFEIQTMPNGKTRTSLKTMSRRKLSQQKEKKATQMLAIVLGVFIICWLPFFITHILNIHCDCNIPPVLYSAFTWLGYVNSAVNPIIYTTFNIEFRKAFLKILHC
T4 sequence (P35367 whole entry): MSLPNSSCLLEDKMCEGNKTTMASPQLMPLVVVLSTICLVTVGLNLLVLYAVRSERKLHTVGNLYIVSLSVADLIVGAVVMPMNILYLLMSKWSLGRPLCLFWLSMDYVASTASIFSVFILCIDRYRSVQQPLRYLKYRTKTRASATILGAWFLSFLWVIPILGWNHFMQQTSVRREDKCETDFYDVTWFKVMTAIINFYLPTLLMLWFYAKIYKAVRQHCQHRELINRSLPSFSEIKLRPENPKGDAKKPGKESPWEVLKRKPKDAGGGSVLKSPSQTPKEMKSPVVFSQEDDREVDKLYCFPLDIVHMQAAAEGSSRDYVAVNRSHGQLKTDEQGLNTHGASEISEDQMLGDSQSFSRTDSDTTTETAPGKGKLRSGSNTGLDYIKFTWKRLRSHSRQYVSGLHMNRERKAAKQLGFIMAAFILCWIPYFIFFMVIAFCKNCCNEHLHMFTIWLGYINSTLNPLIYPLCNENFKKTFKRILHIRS

| Structure (SMILES) | Ki [1] [nM] | Ki (rat MCH1 receptor; [4]) [nM] | Ki (rat MCH1 receptor; Table 3c, read-out: rMCH1 Ki) [nM] | Ki [2] [nM] | Ki ([3]; Table 3c, read-out: hH1 Ki) [nM] | Ki (rat MCH1 receptor) [nM] | Ki (rat MCH1 receptor; read-out: rMCH1 Ki, Table 3c) [nM] | Ki [3] [nM] |
| --- | --- | --- | --- | --- | --- | --- | --- | --- |
| COC(=O)C1=C(C)N=C(SCc2ccc(OC)cc2)N(C(=O)NCCCN2CCC(c3cccc(NC(C)=O)c3)CC2)C1c1ccc([N+](=O)[O-])cc1 (centres unmarked) [Example 54, METHYL 1-{[(3-{4-[3-(ACETYLAMINO)PHENYL]-1-PIPERIDINYL}PROPYL)AMINO]CARBONYL}-2-[(4-METHOXYBENZYL)SULFANYL]-4-METHYL-6-(4-NITROPHENYL)-1,6-DIHYDRO-5-PYRIMIDINECARBOXYLATE] | 23000 | 29.9 | 29.9 | 11100 | 11400 |  |  |  |
| COC(=O)C1=C(C)NC(=O)N(C(=O)NCCCN2CCC(c3cccc(NC(C)=O)c3)CC2)[C@H]1c1ccc(F)c(F)c1 [Example 56, METHYL (4S)-3-{[(3-{4[3-(ACETYLAMINO)PHENYL]-1-PIPERIDINYL}PROPYL)AMINO]CARBONYL}-4-(3,4-DIFLUOROPHENYL)-6-METHYL-2-OXO-1,2,3,4-TETRAHYDRO-5-PYRIMIDINECARBOXYLATE] | 10400 | 0.26 | 0.26 | 305 | 7230 |  |  |  |
| CC(=O)Nc1cccc(C2CCN(CCCC(=O)c3ccc(C)c(C)c3)CC2)c1 [Example 57] | 6090 | 90 | 90 | 49 | 823 |  |  |  |
| COc1cccc(CC(=O)Nc2cccc(C3CCN(CCCC(=O)c4ccc(C)c(C)c4)CC3)c2)c1 [Example 61] | 1140 | 14.2 | 14.2 | 9.1 | 1620 |  |  |  |
| CC(=O)Nc1cccc(C2CCN(CCCC(=O)c3ccc(Cl)cc3)CC2)c1 [Example 65] | 1430 | 69 | 69 | 26.4 | 1730 |  |  |  |
| O=C(Cc1ccccc1)Nc1cccc(C2CCN(CCCC(=O)c3ccc(Cl)cc3)CC2)c1 [Example 68] | 771 | 84 | 84 | 57 | 571 |  |  |  |
| COc1ccc(C(=O)CCCN2CCC(c3cccc(NC(=O)C(C)C)c3)CC2)c(OC)c1 [Example 78] | 5180 | 52 | 52 | 284 | 2280 |  |  |  |
| COC(CCN1CCC(c2cccc(NC(=O)C(C)C)c2)CC1)c1ccc(Cl)cc1 (centres unmarked) [Example 91] | 9650 | 11.5 | 11.5 | 533 | 2000 |  |  |  |
| CC(C)C(=O)Nc1cccc(C2CCN(CCCCCCN3C(=O)c4ccccc4C3=O)CC2)c1 [Example 92] | 12000 | 62 | 62 | 1490 | 2450 |  |  |  |
| COC(CCN1CCC(c2cccc(NC(=O)C(C)C)c2)CC1)c1ccccc1 (centres unmarked) [Example 93] | 35000 | 29.1 | 29.1 | 1090 | 16700 |  |  |  |
| CC(C)C(=O)Nc1cccc(C2CCN(CCCCN3C(=O)c4ccccc4C3=O)CC2)c1 [Example 94] | > 50000 | 18.2 | 18.2 | 1590 | 6590 |  |  |  |
| CC(C)C(=O)Nc1cccc(C2CCN(CCCCCN3C(=O)c4ccccc4C3=O)CC2)c1 [Example 95, N-(3-{1-[5-(1,3-dioxo-1,3-dihydro-2H-isoindol-2-yl)pentyl]-4-piperidinyl]phenyl)-2-methylpropanamide] | > 50000 | 11.8 | 11.8 | 2940 | 6400 |  |  |  |
| CC(C)C(=O)Nc1cccc(C2CCN(CCCCc3ccccc3)CC2)c1 [Example 96] | 7450 | 50 | 50 | 12.3 | 273 |  |  |  |
| COC(CCN1CCC(c2cccc(NC(=O)C(C)C)c2)CC1)c1ccc(C)cc1 (centres unmarked) [Example 99] | 10400 | 12 | 12 | 434 | 2560 |  |  |  |
| CC(C)OC(CCN1CCC(c2cccc(NC(=O)C(C)C)c2)CC1)c1ccccc1 (centres unmarked) [Example 100] | 8670 | 11.5 | 11.5 | 704 | 11100 |  |  |  |
| CC(C)C(=O)Nc1cccc(C2CCN(CCCC(c3ccc(F)cc3)c3ccc(F)cc3)CC2)c1 [Example 101] | 42.2 | 1.6 | 1.6 | 18 | 3.4 |  |  |  |
| CC(C)C(=O)Nc1cccc(C2CCN(Cc3cc(C(F)(F)F)cc(C(F)(F)F)c3)CC2)c1 [Example 103] | > 50000 | 52 | 52 | > 50000 | 36900 |  |  |  |
| COc1ccc(O[C@H](CCN2CCC(c3cccc(NC(=O)C(C)C)c3)CC2)c2ccccc2)cc1OC [Example 104] | 735 | 6.7 | 6.7 | 452 | 6390 |  |  |  |
| CC(C)C(=O)Nc1cccc(C2CCN(CC[C@H](Oc3ccccc3)c3ccccc3)CC2)c1 [Example 105] | 471 |  |  | 140 |  | 7.1 | 7.1 | 39.1 |
| COc1ccc(O[C@@H](CCN2CCC(c3cccc(NC(=O)C(C)C)c3)CC2)c2ccccc2)cc1 [Example 106] | 1080 | 3.9 | 3.9 | 161 | 304 |  |  |  |
| CC(C)C(=O)Nc1cccc(C2CCN(CC[C@H](Oc3cccc(Cl)c3)c3ccccc3)CC2)c1 [Example 107] | 152 | 3.1 | 3.1 | 33.5 | 130 |  |  |  |
| CC(C)C(=O)Nc1cccc(C2CCN(CC[C@H](Oc3ccc(Cl)cc3)c3ccccc3)CC2)c1 [Example 108] | 244 | 3.8 | 3.8 | 13.2 | 264 |  |  |  |
